Calls of active or inactive are those of the source. No cut-off for these calls is given here.
species on record: Homo sapiens; assay: Psychotomimetic potency expressed as the effective dose of mescaline divided by the effective dose in human; Inactive; type: functional, organism-based

Q: For COc1ccc(CCN)c(OC)c1OC, which Potency is on record?
A: inactive

Q: For COc1ccc(CC(C)N)c(OC)c1OC (stereo unspecified), which Potency is on record?
A: inactive

species on record: Homo sapiens; assay: Psychotomimetic potency expressed as the effective dose of mescaline divided by the effective dose in human; type: functional

Q: How did the Potency turn out when COc1cc(CC(C)N)c(OC)cc1C.Cl (stereo unspecified) was run?
A: 80 MU

Q: How did the Potency turn out when COc1cc(CCN)cc(OC)c1OC.Cl was run?
A: 1 MU

Q: For COc1ccc(OC)c(CC(C)N)c1.Cl (stereo unspecified), which Potency is on record?
A: 8 MU

Q: For COc1c(CCN)ccc2c1OCO2.Cl, which Potency is on record?
A: 5 MU

Q: With COc1cc(OC)c(CC(C)N)c(OC)c1.Cl (stereo unspecified) as the compound, how does the Potency read?
A: 10 MU

Q: How did the Potency turn out when COc1ccc(CC(C)N)cc1.Cl (stereo unspecified) was run?
A: 5 MU

Q: With COc1c(CC(C)N)ccc2c1OCO2.Cl (stereo unspecified) as the compound, how does the Potency read?
A: 10 MU

Q: COc1cc(CC(C)N)cc(OC)c1OC.Cl (stereo unspecified) was tested. Which Potency did it give?
A: 2.2 MU

Q: With COc1cc(OC)c(OC)cc1CC(C)N.Cl (stereo unspecified) as the compound, how does the Potency read?
A: 17 MU

From ChEMBL document CHEMBL1121894, “Studies on phenethylamine hallucinogens. 2. Conformations of arylmethoxyl groups using 13C NMR” (1981)
